Measurements reported in article PMC5797111, “Molecular and Functional Characterization of pheromone binding protein 1 from the Oriental Fruit Moth, Grapholita molesta (Busck)” (Scientific Reports, 2018).

Key:
GmolPBP2 = biological target: GmolPBP2; parameters: method as in doi:10.1016/S2095-3119(13)60686-3; settings: cited from earlier work
GmolPBP1 [1] = biological target: T1, GmolPBP1 (Grapholita molesta, UniProt A0A2R4SBD6); assay: Fluorescence competitive binding assay with 1-NPN as probe; settings: for binding affinity to GmolPBP1 (in words): displacement of 1-NPN; for binding affinity to GmolPBP1 (in words) / IC50: ligands 1 to 10 μM; for IC50 / Ki: 1-NPN and GmolPBP1 both at 2 μM; for IC50: read-out: IC50 (ligand concentration displacing half of the initial fluorescence intensity of the GmolPBP1/1-NPN complex); for Ki: calculated from the IC50 value, read-out: Ki (dissociation constant)
Procedure: (§1) To understand the binding properties of the GmolPBP1 with four sex pheromone components of G. molesta and the Codlemone of C. pomonella. We expressed and purified the protein (Figure S1). Then, a competitive binding assay was performed with 1-NPN as the fluorescence probe. The probe was excited at 337 nm and emission spectra were recorded between 370 and 500 nm. The fluorescent intensity of the 1-NPN alone was fairly low, then a strong blue shift, and peaked at about 410 nm with the presence of GmolPBP1. The intensity of this peak was used to determine the dissociation constant of the GmolPBP1/1-NPN complex.
The displacement of 1-NPN by different sex pheromone components was measured for GmolPBP1 in the competitive binding assy. These ligands included the four sex pheromone components of G. molesta (Z)-8-dodecenyl acetate, (E)-8-dodecenyl acetate, (Z)-8-dodecenyl alcohol and 1-dodecanol as well as the C. pomonella Codlemone. […] The dissociation constants for these three compounds are 1.73 ± 0.31, 2.25 ± 0.63 and 1.88 ± 0.25 μM, respectively.
Emission fluorescence spectra were performed on an F-4600 fluorescence Spectrophotometer (Hitachi, Japan) in a 1 cm light path quartz cuvette with 10 nm slit width for both excitation and emission. The excitation wavelength was set at 337 nm and emission spectra were recorded between 370 and 500 nm. The fluorescent probe N-phenyl-1-naphthylamine (1-NPN) and the ligands used in the binding assay were dissolved in spectrophotometric-grade methanol to yield a 1-mM stock solution (for the sources of these chemicals, see Table S1). To determine the dissociation constant between 1-NPN and GmolPBP1, 2 μM GmolPBP1 dissolved in 20 mM Tris-HCl pH 7.4 was titrated with 1 mM 1-NPN to final concentrations of 2–16 μM. The fluorescence intensities at the maximum fluorescence emission between 370 and 500 nm were plotted against the concentrations of added 1-NPN. The curve was linearized using Scatchard plots. The concentrations of bound 1-NPN were evaluated from the values of fluorescence intensity assuming that the protein was 100% active with a stoichiometry of 1:1 (protein: ligand) at saturation. The affinities of the selected ligands were measured by competitive binding assays by adding the ligands from 1 to 10 μM into the 1-NPN/GmolPBP1 solution (both at 2 μM). The emission spectra were recorded between 370 and 500 nm and the maximum fluorescence intensities were plotted against the ligand concentrations after normalization relative to the intensity at zero ligand. For these competitor ligands, the dissociation constants were computed from the corresponding IC50 values using the quation: Ki = [IC50]/(1 + [1-NPN]/K1-NPN), where [1-NPN] is the free concentration of 1-NPN and K1-NPN is the dissociation constant of the protein complex/1-NPN. All values reported were collected in three independent measurements.

GmolPBP1 [2] = biological target: T1, GmolPBP1; assay: 1-NPN fluorescence binding (titration, Scatchard plot); settings: 2 μM GmolPBP1 in 20 mM Tris-HCl pH 7.4, 1-NPN 2–16 μM; read-out: dissociation constant of the GmolPBP1/1-NPN complex
Procedure: as §1
Emission fluorescence spectra were performed on an F-4600 fluorescence Spectrophotometer (Hitachi, Japan) in a 1 cm light path quartz cuvette with 10 nm slit width for both excitation and emission. The excitation wavelength was set at 337 nm and emission spectra were recorded between 370 and 500 nm. […] The fluorescence intensities at the maximum fluorescence emission between 370 and 500 nm were plotted against the concentrations of added 1-NPN. […] The concentrations of bound 1-NPN were evaluated from the values of fluorescence intensity assuming that the protein was 100% active with a stoichiometry of 1:1 (protein: ligand) at saturation. […]

CpomPBP2 = test system: CpomPBP2; parameters: method as in PMID 27491022, PMID 27709920; settings: cited from earlier work
male G. molesta = test system: male G. molesta; parameters: method as in earlier work; settings: added to blend of (Z)-8-dodecenyl acetate (85.5%), (E)-8-dodecenyl acetate (5.5%) and (Z)-8-dodecenyl alcohol (9%); cited from earlier work
CpomPBP1 = test system: CpomPBP1; parameters: method as in PMID 27491022, PMID 27709920; settings: cited from earlier work

T1 sequence (A0A2R4SBD6 entry or part of it): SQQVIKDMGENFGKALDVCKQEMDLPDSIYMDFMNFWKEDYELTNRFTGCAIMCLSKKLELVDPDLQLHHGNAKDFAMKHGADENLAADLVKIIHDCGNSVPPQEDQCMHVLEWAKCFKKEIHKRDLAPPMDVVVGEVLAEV

| SMILES | binding affinity to GmolPBP1 (in words) (GmolPBP1 [1]) | IC50 (GmolPBP1 [1]) | Ki (GmolPBP1 [1]) | Ki (GmolPBP2) | Kd (GmolPBP1 [2]) | affinity to CpomPBP2 (in words) (CpomPBP2) | increase of trap catches of male G. molesta over the G. molesta blend alone (male G. molesta) | affinity to CpomPBP1 (in words) (CpomPBP1) |
| --- | --- | --- | --- | --- | --- | --- | --- | --- |
| CCC/C=C\CCCCCCCOC(C)=O [(Z)-8-dodecenyl acetate] | could not displace half of the total 1-NPN |  |  | 1090 ± 40 nM |  |  |  |  |
| CCC/C=C/CCCCCCCOC(C)=O [(E)-8-dodecenyl acetate] | could not displace half of the total 1-NPN |  |  | 1100 ± 50 nM |  |  |  |  |
| c1ccc(Nc2cccc3ccccc23)cc1 [1-NPN, N-phenyl-1-naphthylamine] |  |  |  |  | 2410 ± 250 nM |  |  |  |

Further lines, with some results ahead:

| binding affinity to GmolPBP1 (in words) (GmolPBP1 [1]) | IC50 (GmolPBP1 [1]) | Ki (GmolPBP1 [1]) | SMILES | Ki (GmolPBP2) | Kd (GmolPBP1 [2]) | affinity to CpomPBP2 (in words) (CpomPBP2) | increase of trap catches of male G. molesta over the G. molesta blend alone (male G. molesta) | affinity to CpomPBP1 (in words) (CpomPBP1) |
| --- | --- | --- | --- | --- | --- | --- | --- | --- |
| strong affinity | 2460 ± 430 nM | 1730 ± 310 nM | CCC/C=C\CCCCCCCO [(Z)-8-dodecenyl alcohol] |  |  |  |  |  |
| strong affinity | 2660 ± 350 nM | 1880 ± 250 nM | C/C=C/C=C/CCCCCCCO [Codlemone, E, E-8, 10-Dodecadienol] |  |  | poor affinity | two- to three-fold | strong affinity |
| strong affinity | 3200 ± 890 nM | 2250 ± 630 nM | CCCCCCCCCCCCO [1-dodecanol] |  |  |  |  |  |
